Measurements from patent US10829500B2, “Pyridyl-triazabicycles” (Hoffmann-La Roche Inc., priority 2014, dated 2020).
pIC50: −log10 of the molar value.

target: BACE1 (Homo sapiens (Human), UniProt P56817); experiment: Cellular Aβ-lowering assay (Abeta 40 AlphaLISA) in HEK293 APP cells; type: cell-based; conditions: Aβ 40 in culture supernatant after 18-20 hrs incubation
Experimental: Cellular Aβ-Lowering Assay:
The Abeta 40 AlphaLISA Assay can be used. The HEK293 APP cells were seeded in 96 well Microtiter plates in cell culture medium (Iscove's, plus 10% (v/v) fetal bovine serum, penicillin/streptomycin) to about 80% confluency and the compounds were added at a 3× concentration in ⅓ volume of culture medium (final DMSO concentration was kept at 1% v/v). After 18-20 hrs incubation at 37° C. and 5% CO2 in a humidified incubator, the culture supernatants were harvested for the determination of Aβ 40 concentrations using Perkin-Elmer Human Amyloid beta 1-40 (high specificity) Kit (Cat # AL275C).
In a Perkin-Elmer White Optiplate-384 (Cat #6007290), 2 ul culture supernatants were combined with 2 μl of a 10× AlphaLISA Anti-hAβAcceptor beads+Biotinylated Antibody Anti-Aβ 1-40 Mix (50 μg/mL/5 nM). After 1 hour room temperature incubation, 16 μl of a 1.25× preparation of Streptavidin (SA) Donor beads (25 μg/mL) were added and incubated for 30 minutes in the Dark. Light Emission at 615 nm was then recorded using EnVision-Alpha Reader. Levels of A β 40 in the culture supernatants were calculated as percentage of maximum signal (cells treated with 1% DMSO without inhibitor). The IC50 values were calculated using the Excel XLfit software.

Chain of BACE1 (P56817 46-501): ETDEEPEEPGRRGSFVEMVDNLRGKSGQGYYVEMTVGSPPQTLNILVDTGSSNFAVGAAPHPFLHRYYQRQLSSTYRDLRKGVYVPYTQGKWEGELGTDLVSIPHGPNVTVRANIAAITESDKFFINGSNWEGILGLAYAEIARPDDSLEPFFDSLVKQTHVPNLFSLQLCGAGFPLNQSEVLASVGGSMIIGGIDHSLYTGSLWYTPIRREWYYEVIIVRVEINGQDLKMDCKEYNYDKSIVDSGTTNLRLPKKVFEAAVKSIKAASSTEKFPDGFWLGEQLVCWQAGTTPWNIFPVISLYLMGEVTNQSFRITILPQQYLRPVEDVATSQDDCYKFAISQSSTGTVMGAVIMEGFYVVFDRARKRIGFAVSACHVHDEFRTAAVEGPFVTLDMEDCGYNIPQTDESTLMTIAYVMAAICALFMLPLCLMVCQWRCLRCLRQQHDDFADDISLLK

| SMILES | pIC50 |
| --- | --- |
| C[C@@]1(c2nc(NC(=O)c3ccc(C#N)cn3)ccc2F)CS2(=O)=NCCCCN2C(N)=N1 (stereo in doubt) [Example 1, 5-Cyano-pyridine-2-carboxylic acid [6-((3R,4aR)-1-amino-3-methyl-4a-oxo-3,4,6,7,8,9-hexahydro-4aλ^6-thia-2,5,9a-triaza-benzocyclohepten-3-yl)-5-fluoro-pyridin-2-yl]-amide] | 7.07 |
| Cc1cc(C#N)cnc1C(=O)Nc1ccc(F)c([C@]2(C)C[S@@]3(=O)=NCCCCN3C(N)=N2)n1 [Example 3] | 7.44 |
| N#Cc1ccc(C(=O)Nc2ccc(F)c([C@]3(CF)C[S@@]4(=O)=NCCCCN4C(N)=N3)n2)nc1 [Example 5, N-[6[(1R,10S)-8-Amino-10-(fluoromethyl)-1-oxo-1λ^6-thia-2,7,9-triazabicyclo[5.4.0]undeca-1,8-dien-10-yl]-5-fluoropyridin-2-yl]-5-cyanopyridine-2-carboxamide] | 7.55 |

Results, then the compound that gave them:

| pIC50 | SMILES |
| --- | --- |
| 7.31 | C[C@@]1(c2nc(NC(=O)c3ccc(C#N)cn3)ccc2F)CS2(=O)=NCCCCN2C(N)=N1 (stereo in doubt) [Example 2, 5-Cyano-pyridine-2-carboxylic acid [6-((3R,4aS)-1-amino-3-methyl-4a-oxo-3,4,6,7,8,9-hexahydro-4aλ^6-thia-2,5,9a-triaza-benzocyclohepten-3-yl)-5-fluoro-pyridin-2-yl]-amide] |
| 7.02 | N#Cc1ccc(C(=O)Nc2ccc(F)c([C@]3(CF)C[S@]4(=O)=NCCCCN4C(N)=N3)n2)nc1 [Example 4, N-[6-[(1S,10S)-8-Amino-10-(fluoromethyl)-1-oxo-1λ^6-thia-2,7,9-triazabicyclo[5.4.0]undeca-1,8-dien-10-yl]-5-fluoropyridin-2-yl]-5-cyanopyridine-2-carboxamide] |
